The values below come from PMC2721768 (Purinergic Signalling, 2008).

Marks after values point to notes of the source that are not given here.

One series deals with T1, rat NTPDase3 (Rattus norvegicus, UniProt A6I415).
T1 sequence (A6I415 1-529): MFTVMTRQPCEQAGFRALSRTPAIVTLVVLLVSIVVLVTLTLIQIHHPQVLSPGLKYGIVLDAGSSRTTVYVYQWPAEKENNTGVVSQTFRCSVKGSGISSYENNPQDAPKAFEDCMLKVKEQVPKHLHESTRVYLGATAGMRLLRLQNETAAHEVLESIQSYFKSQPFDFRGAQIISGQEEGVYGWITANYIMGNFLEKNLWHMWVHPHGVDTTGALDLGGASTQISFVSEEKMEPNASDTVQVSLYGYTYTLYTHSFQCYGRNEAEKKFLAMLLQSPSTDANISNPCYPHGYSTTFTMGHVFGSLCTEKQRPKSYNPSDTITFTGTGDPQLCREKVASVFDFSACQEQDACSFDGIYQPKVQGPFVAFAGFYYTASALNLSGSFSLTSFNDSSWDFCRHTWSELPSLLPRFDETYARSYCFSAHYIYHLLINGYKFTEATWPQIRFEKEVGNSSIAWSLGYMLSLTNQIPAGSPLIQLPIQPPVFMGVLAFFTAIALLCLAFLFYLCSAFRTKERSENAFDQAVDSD
As to the kind of experiment: Inhibition of rat NTPDase3. To be noted: for inhibition at 1000 µM: read-out: percent inhibition at 1 mM NTPDase3.

For another series, the target named is T2, rat NTPDase2 (Rattus norvegicus, UniProt O35795).
T2 sequence (O35795 1-495): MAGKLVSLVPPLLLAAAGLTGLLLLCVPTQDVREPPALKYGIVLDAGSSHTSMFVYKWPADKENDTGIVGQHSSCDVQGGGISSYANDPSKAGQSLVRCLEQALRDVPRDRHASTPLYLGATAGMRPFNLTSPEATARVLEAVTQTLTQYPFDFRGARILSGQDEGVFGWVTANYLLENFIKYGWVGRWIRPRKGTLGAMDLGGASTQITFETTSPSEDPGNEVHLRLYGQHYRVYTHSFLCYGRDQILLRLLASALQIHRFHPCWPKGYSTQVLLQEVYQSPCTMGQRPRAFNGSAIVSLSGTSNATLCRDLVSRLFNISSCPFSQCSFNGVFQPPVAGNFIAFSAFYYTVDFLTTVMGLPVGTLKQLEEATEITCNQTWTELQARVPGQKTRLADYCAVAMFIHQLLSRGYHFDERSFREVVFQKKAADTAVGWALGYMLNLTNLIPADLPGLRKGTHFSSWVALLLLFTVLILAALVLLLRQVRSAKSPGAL
Nature of the series: Inhibition of rat NTPDase2. To be noted: for inhibition at 1000 µM: read-out: percent inhibition at 1 mM NTPDase2.

For a further series, the target named is T3, rat NTPDase1 (Rattus norvegicus, UniProt P97687).
T3 sequence (P97687 1-511): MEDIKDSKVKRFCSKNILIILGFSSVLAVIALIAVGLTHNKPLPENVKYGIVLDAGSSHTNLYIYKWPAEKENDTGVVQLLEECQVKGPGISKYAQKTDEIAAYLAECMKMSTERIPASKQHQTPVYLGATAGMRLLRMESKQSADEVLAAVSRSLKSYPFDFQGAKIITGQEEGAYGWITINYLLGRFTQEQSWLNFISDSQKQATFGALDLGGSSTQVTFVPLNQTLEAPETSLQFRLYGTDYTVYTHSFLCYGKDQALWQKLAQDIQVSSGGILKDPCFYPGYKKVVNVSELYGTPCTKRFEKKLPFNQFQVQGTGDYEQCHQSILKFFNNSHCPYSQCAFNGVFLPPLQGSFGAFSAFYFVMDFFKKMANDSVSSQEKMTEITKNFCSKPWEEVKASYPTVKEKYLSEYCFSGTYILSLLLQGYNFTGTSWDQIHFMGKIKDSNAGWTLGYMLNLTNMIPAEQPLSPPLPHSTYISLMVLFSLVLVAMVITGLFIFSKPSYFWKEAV
As to the kind of experiment: Inhibition of rat NTPDase1. To be noted: for inhibition at 1000 µM: read-out: percent inhibition at 1 mM NTPDase1; for percent inhibition at 1 mM NTPDase1 / inhibition of rat NTPDase1 (in words): rat NTPDase1; for percent inhibition at 1 mM NTPDase1: 1 mM compound, ATP 400 μM.

The next series has as its system NTPDases1, 2, and 3. Conditions: rat NTPDase1, 2 and 3.
A further series deals with P2Y2. Conditions: read-out: IC50 P2Y2 antagonist; cited from earlier work.
Series [1] has as its system ectonucleotidase activity in rat vas deferens tissue. Conditions: at 100 μM; cited from earlier work.
The nature of series [2]: Solubility and stability under the test conditions. It counts as physicochemical. To be noted: 3 mM in HEPES assay buffer (diluted from 10 mM aqueous solution).
The mark [3] stands for this setting: rat NTPDase3, inhibitor 10, 20, and 30 μM.

For the molecule `Nc1c(S(=O)(=O)NCCc2ccccc2)cc(Br)c2c1C(=O)c1ccccc1C2=O` [Compound 33, 1-Amino-4-bromoanthraquinone-2-sulfonic acid phenethylamide], the inhibition at 1000 µM on rat NTPDase3, on rat NTPDase2 and on rat NTPDase1 was 0% each time.

For the molecule `COS(=O)(=O)c1cc(Br)c2c(c1N)C(=O)c1ccccc1C2=O` [Compound 27, 1-Amino-4-bromoanthraquinone-2-sulfonic acid methyl ester], the inhibition at 1000 µM at rat NTPDase3, at rat NTPDase2 and at rat NTPDase1 was 0% in each case.

Consider `Nc1c(S(=O)(=O)Nc2ccccc2)cc(Br)c2c1C(=O)c1ccccc1C2=O` [Compound 31, 1-Amino-4-bromoanthraquinone-2-sulfonic acid phenyl amide], for which the inhibition at 1000 µM at rat NTPDase3, at rat NTPDase2 and on rat NTPDase1 was 0% in each case.

Consider `CC(=O)Nc1ccc(Nc2cc(S(=O)(=O)O)c(N)c3c2C(=O)c2ccccc2C3=O)cc1` [Compound 19], for which the “NTPDase inhibitory activity (in words)” value in the series on NTPDases1, 2, and 3 is “nearly inactive”. The IC50 with P2Y2 is 6 to 12 µM. Also, at rat NTPDase1, the “percent inhibition at 1 mM NTPDase1” value is “(15%)”.

For `Nc1c(S(=O)(=O)[O-])cc(Nc2cccc3ccccc23)c2c1C(=O)c1ccccc1C2=O.[Na+]` [Compound 20, Sodium 1-amino-4-(1-naphthylamino)-9,10-dioxo-9,10-dihydroanthracene 2-sulfonate], on rat NTPDase2 (rat NTPDase2), the “inhibition of rat NTPDase2 (in words)” value is listed as “not inhibitory”. In addition, the inhibition at 1000 µM on rat NTPDase2 was 0%. For the same molecule, on rat NTPDase1, the “inhibition of rat NTPDase1 (in words)” value is “not inhibitory” and the inhibition at 1000 µM is 0%.

With `Cc1cccc(Nc2cc(S(=O)(=O)O)c(N)c3c2C(=O)c2ccccc2C3=O)c1C` [Compound 14], the “percent inhibition at 1 mM NTPDase1” value at rat NTPDase1 was “(67%)^b”.

In the case of `Cc1cccc(Nc2cc(C)c(N)c3c2C(=O)c2ccccc2C3=O)c1` [Compound 24, 1-Amino-2-methyl-4-(3-methylphenylamino)anthraquinone], the inhibition at 1000 µM on rat NTPDase3, on rat NTPDase2 and on rat NTPDase1 was 0% in each case.

In the case of `Nc1c(S(=O)(=O)O)cc(Nc2ccccc2)c2c1C(=O)c1ccccc1C2=O` [Compound 11], the “inhibition of ATP degradation in rat vas deferens tissue” value in series [1] is “inactive”.

Consider `COc1ccccc1Nc1cc(S(=O)(=O)O)c(N)c2c1C(=O)c1ccccc1C2=O` [Compound 16], for which the concentration for half-maximal inhibition (IC50) with P2Y2 is around 9 µM. Also, on rat NTPDase1, the “inhibition of rat NTPDase1 (in words)” value is listed as “weak” and the “percent inhibition at 1 mM NTPDase1” value was “(57%)”.

In the case of `Nc1c(S(=O)(=O)Oc2ccccc2[N+](=O)[O-])cc(Br)c2c1C(=O)c1ccccc1C2=O` [Compound 28, 1-Amino-4-bromoanthraquinone-2-sulfonic acid 2-nitrophenyl ester], the inhibition at 1000 µM on rat NTPDase3, on rat NTPDase2 and on rat NTPDase1 was 0% each time.

`Nc1c(S(=O)(=O)O)cc(Nc2ccc3ccccc3c2)c2c1C(=O)c1ccccc1C2=O` [Compound 21, Sodium 1-amino-4-(2-naphthylamino)-9,10-dioxo-9,10-dihydroanthracene 2-sulfonate] had a Ki at rat NTPDase3 of 2.22 ± 1.03 µM.

For `Cc1ccc(Nc2cc(C)c(N)c3c2C(=O)c2ccccc2C3=O)cc1` [Compound 25, 1-Amino-2-methyl-4-(4-methylphenylamino)anthraquinone], the inhibition at 1000 µM at rat NTPDase3, on rat NTPDase2 and at rat NTPDase1 was 0% in each case.

With `Cc1cc(Nc2cccc3ccccc23)c2c(c1N)C(=O)c1ccccc1C2=O` [Compound 26, 1-Amino-2-methyl-4-(1-naphthylamino)anthraquinone], the inhibition at 1000 µM at rat NTPDase3, on rat NTPDase2 and at rat NTPDase1 was 0% each time.

On to `CCOc1ccccc1Nc1cc(S(=O)(=O)O)c(N)c2c1C(=O)c1ccccc1C2=O` [Compound 17], for which, at rat NTPDase1, the “percent inhibition at 1 mM NTPDase1” value was “(17%)”.

As for `Cc1cc(Nc2ccccc2)c2c(c1N)C(=O)c1ccccc1C2=O` [Compound 23, 1-Amino-2-methyl-4-phenylaminoanthraquinone], the inhibition at 1000 µM at rat NTPDase3, at rat NTPDase2 and at rat NTPDase1 was 0% each time.

In the case of `Nc1c(S(=O)(=O)NCc2ccccc2)cc(Br)c2c1C(=O)c1ccccc1C2=O` [Compound 32, 1-Amino-4-bromoanthraquinone-2-sulfonic acid benzylamide], the inhibition at 1000 µM at rat NTPDase3, on rat NTPDase2 and on rat NTPDase1 was 0% throughout.

Take `Nc1c(S(=O)(=O)Oc2cccc([N+](=O)[O-])c2)cc(Br)c2c1C(=O)c1ccccc1C2=O` [Compound 29, 1-Amino-4-bromoanthraquinone-2-sulfonic acid 3-nitrophenyl ester]: the inhibition at 1000 µM on rat NTPDase3, on rat NTPDase2 and on rat NTPDase1 was 0% each time.

With `Nc1c(S(=O)(=O)O)cc(Nc2ccc(Cl)cc2)c2c1C(=O)c1ccccc1C2=O` [Compound 18, 1-Amino-2-sulfo-4-p-chloroanilinoanthraquinone], the inhibition constant (Ki) at rat NTPDase3 is 16.4 ± 1.6 µM. Also, at rat NTPDase3 (setting [3]), the “effect on Vmax value of NTPDase3” value is given as “not affected” and the “mechanism of inhibition (NTPDase3 kinetics, Lineweaver-Burk plot)” value is “competitive”. Besides, the “effect on Km value of NTPDase3” value at rat NTPDase3 (rat NTPDase3, with increasing concentration of inhibitor (10, 20, 30 μM)) is on record as “increased”. Also, the “time until precipitation (in words)” value in series [2] is “short period of time”.

In the case of `COc1ccc(CCNc2cc(S(=O)(=O)O)c(N)c3c2C(=O)c2ccccc2C3=O)cc1OC` [Compound 22, Sodium 1-amino-4-(3,4-dimethoxyphenethylamino)-9,10-dioxo-9,10-dihydroanthracene 2-sulfonate], the inhibition constant (Ki) on rat NTPDase3 stood at 23.4 ± 0.4 µM; on rat NTPDase2, 54.1 ± 6.8 µM; at rat NTPDase1 it was 173 ± 6 µM.

Turning to `Cc1ccccc1Nc1cc(S(=O)(=O)O)c(N)c2c1C(=O)c1ccccc1C2=O` [Compound 12], the “percent inhibition at 1 mM NTPDase1” value at rat NTPDase1 is reported as “(25%)”.

As for `Nc1c(S(=O)(=O)Oc2ccc([N+](=O)[O-])cc2)cc(Br)c2c1C(=O)c1ccccc1C2=O` [Compound 30, 1-Amino-4-bromoanthraquinone-2-sulfonic acid 4-nitrophenyl ester], the inhibition at 1000 µM at rat NTPDase3, at rat NTPDase2 and at rat NTPDase1 was 0% in each case.

One may read the inhibition as the relative decrease from the control value, in per cent. Broadly, the IC50 is the concentration at which inhibition is half-maximal. One may read the Ki as the equilibrium dissociation constant of an inhibitor or competing ligand from its target. Low values mean a stronger hold on the target, high ones a looser hold on the target.
